molecular target: T1, Amine oxidase [flavin-containing] B (Homo sapiens, UniProt P27338); assay: MAO-B Enzymatic Assay
T1 sequence (P27338 whole entry): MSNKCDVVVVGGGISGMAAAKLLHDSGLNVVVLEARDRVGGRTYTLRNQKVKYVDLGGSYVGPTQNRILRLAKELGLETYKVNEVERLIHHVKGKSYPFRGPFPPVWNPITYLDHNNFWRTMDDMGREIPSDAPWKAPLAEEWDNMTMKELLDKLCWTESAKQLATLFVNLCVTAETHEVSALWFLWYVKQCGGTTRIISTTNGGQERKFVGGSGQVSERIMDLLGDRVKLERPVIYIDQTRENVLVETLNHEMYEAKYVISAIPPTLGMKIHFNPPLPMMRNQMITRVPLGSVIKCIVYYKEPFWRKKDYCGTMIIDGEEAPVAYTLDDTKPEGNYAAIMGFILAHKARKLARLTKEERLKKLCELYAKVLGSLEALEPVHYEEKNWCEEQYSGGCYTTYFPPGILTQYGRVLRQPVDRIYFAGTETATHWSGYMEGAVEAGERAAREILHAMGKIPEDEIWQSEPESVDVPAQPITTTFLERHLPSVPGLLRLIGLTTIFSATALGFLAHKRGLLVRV
Source text: Momoamine oxidase type B(MAO-B) activity in vitro assay using molecules that caused a photomotor response (PMR) "magnitude stimulant' (MAG) phenotype characterized by increased PMR excitation magnitude.

Row | IC50 [µM] | Structure (SMILES)
1 | 10 | CC(C)(C)OC(=O)NCCC(=O)Oc1ccc(C(=O)Oc2ccc3c4c(c(=O)oc3c2)CCCC4)cc1Cl [MAG-5]
2 | 0.5 | CC(C)(C)OC(=O)NCC(=O)Oc1ccc(C(=O)Oc2ccc3c4c(c(=O)oc3c2)CCC4)cc1Cl [MAG-7]
3 | 10 | O=C(CNC(=O)OCc1ccccc1)Oc1ccc(C(=O)Oc2ccc3c4c(c(=O)oc3c2)CCC4)cc1Cl [MAG-6]
4 | 1 | CC(C)(C)OC(=O)NCCC(=O)Oc1ccc(C(=O)Oc2ccc3c4c(c(=O)oc3c2)CCC4)cc1Cl [MAG-3]
